Drawing on PubChem BioAssay (NCI), this text covers TGI for 30 compounds.

Test systems include HL-60(TB) leukemia; PC-3 prostate; SF-539 CNS.
Assay in all cases: inhibition of tumour cell growth, NCI panel, 48 h

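Where inhibition never reached the appropriate level, the endpoint shown equals the highest concentration tested. Otherwise, values were interpolated linearly from a five-concentration, 48-hour dose response in 96-well plates. TGI: concentration producing complete growth inhibition.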

As to `CN(C)c1ccc(NN=C2SC(=Nc3ccccc3)C(=Nc3ccccc3)S2)cc1`, the TGI in the test with HL-60(TB) leukemia, in the test with PC-3 prostate and in the test with SF-539 CNS was above 100 µM throughout.

With `CCC(C=O)P1(=O)OC(C)(C)CN1C(C)(C)C` (stereo not given), the TGI in the test with PC-3 prostate and in the test on SF-539 CNS was above 100 µM in each case.

In the case of `O=C1C(Cl)=C(Nc2ccc(S(=O)(=O)O)cc2)C(=O)c2ccccc21`, the TGI in the test on HL-60(TB) leukemia was above 100 µM; with PC-3 prostate it was 69.5 µM; in the test with SF-539 CNS, 57.9 µM.

As for `O=C(NNCC(O)COc1ccccc1)c1ccccc1` (stereo not given), the TGI with HL-60(TB) leukemia, with PC-3 prostate and in the test on SF-539 CNS was above 100 µM throughout.

As to `CCOC(=O)C1=NOC2(C=C(Br)C(=O)C(Br)=C2)C1`, the figures for the TGI in the test on HL-60(TB) leukemia, in the test on PC-3 prostate and in the test with SF-539 CNS were 1.1 µM, 5.31 µM and 20.2 µM, respectively.

For the compound `COC1=CC(=O)C2=C(C1=O)[C@H]1CC[C@]3(C)[C@@H](O)CC[C@H]3[C@@H]1CC2`, the TGI in the test with HL-60(TB) leukemia came out at 46.5 µM; in the test with PC-3 prostate, 30 µM; in the test on SF-539 CNS, 30.6 µM.

On to `CCC(CCCN)Nc1cc(OC)cc2c(C)ccnc12` (stereo not given), for which the TGI in the test with HL-60(TB) leukemia is 27.7 µM; in the test with PC-3 prostate, 26.2 µM; in the test on SF-539 CNS, 33.4 µM.

Consider `NCCSS(=O)(=O)CCN`, for which the TGI in the test on HL-60(TB) leukemia, in the test with PC-3 prostate and in the test with SF-539 CNS was above 100 µM each time.

Turning to `CCc1nn(CN2CCOCC2)c(=S)n1/N=C/c1ccc(-c2ccc(Cl)cc2)o1`, the TGI in the test with HL-60(TB) leukemia, in the test on PC-3 prostate and in the test on SF-539 CNS was above 100 µM each time.

Consider `C=CCN1C(=O)/C(=C/c2cccs2)N=C1SC/C=C/C`, for which the TGI in the test on HL-60(TB) leukemia was 62.2 µM; in the test on PC-3 prostate it was above 100 µM; in the test with SF-539 CNS it was above 100 µM.

On to `O=C(c1ccccc1)c1ccc2nc(-c3c(Cl)c(Cl)c(Cl)c(Cl)c3C(=O)N/N=C/c3ccc(Cl)cc3)[nH]c2c1`, for which the TGI is 21.1 µM with HL-60(TB) leukemia, above 100 µM in the test with PC-3 prostate and above 100 µM in the test on SF-539 CNS.

`Cc1cc(C)c(-n2[nH]c(=O)n(C)c2=O)c(C)c1`: the TGI with HL-60(TB) leukemia, in the test on PC-3 prostate and with SF-539 CNS was above 100 µM each time.

With `COc1cc(C2SCC(=O)N2c2cccc(Cl)c2)cc(OC)c1OC` (stereo not given), the TGI in the test with HL-60(TB) leukemia, in the test with PC-3 prostate and in the test on SF-539 CNS was above 100 µM each time.

Consider `CNC(=O)C1(N)c2ccccc2C=Cc2ccccc21`, for which the TGI in the test on HL-60(TB) leukemia, in the test on PC-3 prostate and in the test with SF-539 CNS was above 100 µM in each case.

Take `Nc1n[n+](CC(=O)c2ccccc2)c2sc(-c3ccccc3)nn12`: the TGI in the test on PC-3 prostate and in the test with SF-539 CNS was above 100 µM each time.

With `CC1=NNC(=O)C1C1CC(c2c[nH]c3ccccc23)=NNC1=O` (stereo not given), the TGI in the test with HL-60(TB) leukemia, in the test on PC-3 prostate and in the test on SF-539 CNS was above 100 µM in each case.

`O=C1CCCN1C(=O)CS(=O)(=O)c1ccccc1` displayed a TGI in the test with PC-3 prostate above 100 µM.

As for `COc1cc2c3c(c1)CCCN3CCC2`, the TGI with HL-60(TB) leukemia, in the test on PC-3 prostate and in the test on SF-539 CNS was above 10 µM in each case.

As for `COc1cc2c(cc1OC)C1C=NC(C2)c2cc(OC)c(OC)cc21` (stereo not given), the TGI in the test on HL-60(TB) leukemia, with PC-3 prostate and in the test with SF-539 CNS was above 100 µM throughout.

As to `COC1/C=C/C(C)C(C(C)C(OC)C(C)CCC(=O)C(C)C(C/C=C/N(C)C=O)OC)OC(=O)C=CC2OC2(C)CC(OC)C(OC)C2=CC(=O)O[C@@H](C(C)C(OC)CC(OC)/C=C/C(C)C(O)C1)[C@H]2O` (stereo not given in full), the TGI in the test with HL-60(TB) leukemia is 0.0785 µM; with PC-3 prostate, 0.0297 µM; in the test on SF-539 CNS it was 0.00742 µM.

For the compound `C=C(Br)CNC(=O)Nc1ccc(Cl)c(Cl)c1`, the TGI in the test with HL-60(TB) leukemia stood at 38.3 µM; in the test on PC-3 prostate, 48 µM; in the test on SF-539 CNS, 39 µM.

Consider `CN(C)CCCN1c2ccccc2Sc2ccc3ccccc3c21`, for which the TGI is 0.0372 µM in the test with HL-60(TB) leukemia, 14.6 µM in the test with PC-3 prostate and 30.9 µM with SF-539 CNS.

With `CCOC(=O)c1c(C)nc2c1c(CN(C)C)c(O)c1[nH]c(C)c(C)nc12`, the TGI in the test with HL-60(TB) leukemia is 25.2 µM; in the test on PC-3 prostate it was 54.5 µM; in the test on SF-539 CNS it was 49.5 µM.

`CC1=NN(C(=O)c2ccncc2)C(=O)C1`: the TGI in the test with HL-60(TB) leukemia, with PC-3 prostate and in the test on SF-539 CNS was above 100 µM in each case.

On to `COc1ccc(C2SCC(=O)N2c2ccc(-c3ccc(-n4c(-c5ccccc5)nc5ccccc5c4=O)cc3)cc2)cc1OC` (stereo not given), for which the TGI in the test on HL-60(TB) leukemia, with PC-3 prostate and with SF-539 CNS was above 100 µM throughout.

Regarding `CC1=NC(=Cc2cccc(Cl)c2)C(=O)N1n1c(-c2ccccc2)nc2ccccc2c1=O`, the TGI in the test with HL-60(TB) leukemia is 61.6 µM; with PC-3 prostate, above 100 µM; in the test on SF-539 CNS it was above 100 µM.

As for `COc1c(F)c(F)c(/C(O)=C\c2nc3ccccc3[nH]c2=O)c(F)c1F`, the TGI in the test on HL-60(TB) leukemia and in the test on PC-3 prostate was above 10 µM each time.

As to `O=S1(=O)OCCOS(=O)(=O)C1(F)Br`, the TGI in the test on HL-60(TB) leukemia, in the test with PC-3 prostate and with SF-539 CNS was above 100 µM in each case.

On to `CC(=O)Nc1ccc(C(O)/C(=N/N)c2nc3ccc(Cl)cc3[nH]c2=O)cc1` (stereo not given), for which the TGI in the test with HL-60(TB) leukemia, with PC-3 prostate and with SF-539 CNS was above 100 µM throughout.

As to `COc1c(Br)cc2c(c1OC)C(Br)CCC(Br)(Br)C2=O` (stereo not given), the TGI turned out to be 3.09 µM in the test with HL-60(TB) leukemia, 4.03 µM in the test with PC-3 prostate and 5.25 µM with SF-539 CNS.
